Source: US9562891B2, “Method for screening patient-specific anti-cancer agent using limiting dilution assay” (Samsung Life Public Welfare Foundation, priority 2013, dated 2017)

Experiments:
[1] = system: 775T cell line (patient-derived brain glioblastoma); experiment: Screening of anti-cancer agent using limiting dilution assay (sphere formation, ratio of non-formed wells); assay type: cell-based, human; conditions: 775T as compared to 448T and 464T cell lines; cultured 2 to 3 weeks (FIG. 5)
From the text: The patient-specific anti-cancer agent was screened by using a limiting dilution assay according to the above-described Examples, and a result obtained therefrom was compared with a result separately obtained by a screening method using a 96 well plate. Alginate gel containing 2, 5, 10, 20, 50 or 100 cells was discharged onto each micropillar and was subjected to stamping into a culture medium containing the anti-cancer agent. The anti-cancer agent SU11274 and PHA665752, which is c-Met inhibitor, was treated for each concentration. A size of spheres formed after being cultured for 2 to 3 weeks was automatically measured and analyzed. Whether or not the sphere is formed was determined by culturing cells of the experimental group and the control group up to 4 doubling times and comparing sphere area max values of the biggest spheres among the spheres formed in each well, as shown in FIG. 4. […] Here, the well having sphere area max value smaller than the reference value was determined that the spheres were not formed in the well (non-formed). The well having sphere area max value as the same as the average value of the sphere area max of the control group or higher than that was determined that the sphere were formed in the well (formed). […]

[2] = system: patient-derived cancer cells (brain glioblastoma); experiment: Three-dimensional culture of patient-derived cancer cells in alginate on micropillar chip, Calcein AM sphere staining; assay type: cell-based, human
Description: The suspension-cultured neurospheres obtained in Example above were collected and treated with 0.025% trypsin/EDTA for 3 minutes, thereby obtaining cell suspensions at a level of a single cell. The cell suspensions were prepared at a concentration of 4 cells/30 nl, 10 cells/30 nl, 20 cells/30 nl, 40 cells/30 nl, 100 cells/30 nl and 200 cells/30 nl, respectively. 50 μL of 3% alginate (Sigma-Aldrich, US) and 100 μL distilled water were mixed to prepare 1% alginate, and then the cell suspensions and 1% alginate as prepared above were mixed together in the same amount. The prepared alginate/cell mixture was discharged onto the surface-modified micropillar using a microarray spotter (Samsung Electro-Mechanics Co., Korea), followed by gelation for 2 minutes so that an alginate gel containing 2, 5, 10, 20, 50 or 100 cells was fixed onto each micropillar (FIG. 1). Each of 950 nl of 2 μM, 5 μM or 10 μM SU11274 (Sigma-Aldrich, US) was dispersed into a microwell chip (Samsung Electro-Mechanics Co., Korea) and the micropillar chip was subjected to stamping. […] 4 doubling time incubation was performed until spheres were formed from the patient-derived cancer cells, and the micropillar chip was subjected to fluorescence staining. […]

SMILES	sensitivity of cell line to anti-cancer effect in limiting dilution assay [1]	survival rate of the cancer cells ([2]; 2 μM, 5 μM or 10 μM, 2-100 cells per alginate gel, cultured 12 days, Calcein AM staining (FIG. 2))	sphere formation (maximum sphere area) ([2]; 5 uM, 12 days, control group sphere areas increased to a maximum of 10.14 times (FIG. 3))
Cc1[nH]c(/C=C2\C(=O)Nc3ccc(S(=O)(=O)Cc4c(Cl)cccc4Cl)cc32)c(C)c1C(=O)N1CCC[C@@H]1CN1CCCC1 [PHA665752]	most sensitive anti-cancer effects		
Cc1[nH]c(/C=C2\C(=O)Nc3ccc(S(=O)(=O)N(C)c4cccc(Cl)c4)cc32)c(C)c1C(=O)N1CCN(C)CC1 [SU11274]	most sensitive anti-cancer effects	survival rate of the cancer cells were decreased	did not form the spheres
